Source: ChEMBL document CHEMBL5614417, “Discovery of AMPs from random peptides via deep learning-based model and biological activity validation” (Eur J Med Chem, 2024)
Converted amounts (≈) assume the structure as drawn. The source made the active and inactive calls. The rule behind the calls is not given here. Where a SMILES comes first, the peptide text is derived from it.

Tests used:
Staphylococcus aureus [1] = assay: Inhibition of biofilm formation in Staphylococcus aureus at 8 times MIC incubated for 24 hrs by crystal violet staining based assay; format: functional
Staphylococcus aureus [2] = assay: Inhibition of biofilm formation in Staphylococcus aureus at 4 times MIC incubated for 24 hrs by crystal violet staining based assay; format: functional
Acinetobacter baumannii = assay: Antibacterial activity against multidrug resistant Acinetobacter baumannii 3 incubated for 18 hrs by visual inspection method; format: functional
Erythrocyte = assay: Hemolytic activity in rat erythrocytes at 500 to 1000 ug/ml incubated for 1 hr; format: toxicity, cell-based; settings: dose 500-1000 µg/ml
Staphylococcus aureus [3] = assay: Bactericidal activity against Staphylococcus aureus at 4 times MIC measured after 2 hrs by time kill kinetic assay; format: functional
Cell membrane [4] = assay: Induction of cell membrane damage in Escherichia coli at 4 times MIC incubated for 30 mins by PI staining based confocal laser scanning microscopic analysis; format: cell membranes
Escherichia coli [5] = assay: Antibacterial activity against ESBL Escherichia coli 5 incubated for 18 hrs by visual inspection method; format: functional
Cell membrane [6] = assay: Induction of cell membrane damage in Staphylococcus aureus assessed as change in morphology by measuring deformed membrane at 4 times MIC incubated for 5 hrs by SEM analysis; format: cell membranes
Escherichia coli [7] = assay: Antibacterial activity against ESBL Escherichia coli 4 incubated for 18 hrs by visual inspection method; format: functional
[8] = Hemolytic activity in rat erythrocytes at 1000 ug/ml incubated for 1 hr; format: toxicity, cell-based, Erythrocyte; settings: at 1000 µg/mL, read-out: Activity
Escherichia coli [9] = assay: Antibacterial activity against Escherichia coli ATCC 25922 incubated for 18 hrs in presence of 150 mM NaCl by visual inspection method; format: functional
Escherichia coli [10] = assay: Antibacterial activity against Escherichia coli ATCC 25922 incubated for 18 hrs in presence of 100 mM NaCl by visual inspection method; format: functional
Staphylococcus aureus [11] = assay: Antibacterial activity against Staphylococcus aureus infected in BALB/c mouse at 10 to 20 mg/kg administered every 4 hrs for 3 doses and measured after 4 hrs post last dose; format: functional, organism-based; settings: dose 10-20 mg/kg, time 16.0 hrs

CC[C@H](C)[C@H](NC(=O)[C@H](Cc1ccccc1)NC(=O)[C@@H](N)Cc1c[nH]c2ccccc12)C(=O)N[C@H](C(=O)N[C@@H](Cc1c[nH]c2ccccc12)C(=O)N[C@@H](Cc1c[nH]cn1)C(=O)N[C@@H](Cc1c[nH]c2ccccc12)C(=O)N[C@@H](CCCNC(=N)N)C(=O)N[C@@H](CCCCN)C(=O)N[C@H](C(=O)N1CCC[C@H]1C(=O)N1CCC[C@H]1C(=O)N[C@@H](CCCCN)C(N)=O)[C@@H](C)CC)[C@@H](C)CC (H-WFIIWHWRKIPPK-NH2)
inhibition (INH) (Staphylococcus aureus [1]): >90% | inhibition (INH) (Staphylococcus aureus [2]): 32.46% | MIC (Acinetobacter baumannii): 7.5 µg/mL (≈ 4.15 µM) | Activity (Erythrocyte): Toxic | Activity (Staphylococcus aureus [3]): 100% | Activity (Cell membrane [4]): Active | MIC (Escherichia coli [5]): 15 µg/mL (≈ 8.3 µM) | Activity (Cell membrane [6]): Active | MIC (Escherichia coli [7]): 15 µg/mL (≈ 8.3 µM) | hemolysis at 1 h, 1000 ug/ml [8]: 10.8% | MIC (Escherichia coli [9]): 15 µg/mL | MIC (Escherichia coli [10]): 15 µg/mL | Activity (Staphylococcus aureus [11]): Active
